Values after ≈ are worked out from the molar mass of the structure shown. Values joined by “and” are separate entries in the source; they are usually repeats but may differ in a detail not shown here. Equal values may be shown once. Read-outs that look alike come from different tables or passages of the source. Non-standard residues stand in square brackets, D forms with d. Residues, ends and D or L forms follow the SMILES beside them. Cit = NC(=O)NCCC[C@H](N)C(=O)O; Dap = NC[C@H](N)C(=O)O
Legend:
[1] = tested on: Bacillus subtilis NBIMCC 3562; type: cell-based; conditions: for Inhibition effect, B. subtilis 3562: zone of peptide over zone of antibiotic x 100; for Inhibition zone, B. subtilis 3562: 20 µL per disc, 24 h
Procedure: (§1) The parent peptide Temporin A and the novel analogs were subjected to tests against model strains Escherichia coli NBIMCC 8785, Bacillus subtilis NBIMCC 3562, Arthrobacter oxydans NBIMCC 9333, Pseudomonas aeruginosa NBIMCC 3700, and Candida albicans NBIMCC 74, for the assessment of their antimicrobial activity. The strains were acquired from the National Bank for Industrial Microorganisms and Cell Cultures (NBIMCC, Bulgaria). The strain E. coli 8785 was cultured in Luria-Bertani broth (LB, HiMedia, Mumbai, India); B. subtilis 3562—in nutrient broth (NB, HiMedia, Mumbai, India); A. oxydans 9333; P. aeruginosa 3700—in meat peptone agar (MPA) medium; and C. albicans 74—in yeast mold (YM) medium. An incubator shaker ES-20/60 (Biosan, Latvia) was used for the cultivation and was set to 30 °C for B. subtilis 3562, A. oxydans 9333, and C. albicans 74; and 37 °C for E. coli 8785 and P. aeruginosa 3700, with a 24 h shaking period at 120 rpm. The microbial cultures were then adjusted to a turbidity of 0.5 McFarland using a Grant-bio DEN-1B densitometer (Grant Instruments, Royston, UK) for further use.
(§2) The disk-diffusion method was used as an additional method, with the aim of determining the percent inhibition of the tested samples against the model strains. Sterile plates with LB/NB/MPA/YM agar medium were inoculated on the surface with 100 μL from each microbial culture and incubated at 30 or 37 °C for 30 min, for the suspension to penetrate the agar. After that, sterile paper discs (HiMedia, Mumbai, India) with a diameter of 6 mm were soaked with 20 µL of the peptide solutions with concentrations of 1.4 mg/mL and 10 mg/mL and placed on the agar surface. Sterile paper discs with 10% EtOH/H2O were used as a negative control, and the corresponding strain antibiotic disks (HiMedia, Mumbai, India)—as a positive control. The incubation of the plate was performed at 30/37 °C for 24 h. The antimicrobial activity was analyzed by measuring the diameter of the inhibition zones in mm. The experiments were conducted in triplicates, and the average values for the percent of inhibition as a correlation between the inhibition zone of the peptides over the inhibition zone of the antibiotic multiplied by 100 were calculated.

MCF-7 cells = test: MTT antiproliferative assay, MCF-7; type: cell-based, human; conditions: for IC50: MTT, 72 h, read-out: Mean IC50 ± SD, MCF-7; for SI (Selectivity Index), MCF-7: SI = IC50 MCF-12F/IC50 tumor cells
Procedure: (§3) The cell lines BALB 3T3 (mouse embryonic fibroblasts) and MCF-12F (human breast epithelial cells) were used as models for healthy tissue. The MCF-7 and MDA-MB-231 cell lines were used as in vitro models for luminal A- and basal B-type breast cancer, respectively. Cell lines were obtained from the American Type Cultures Collection (ATCC, Manassas, VA, USA). Cells were cultured in Dulbecco modified Eagle’s medium (DMEM) supplemented with 10% fetal bovine serum (FBS), 100 U/mL penicillin, and 0.1 mg/mL streptomycin (Sigma-Aldrich, Schnelldorf, Germany) in an incubator at 37 °C, 5% CO2 and 95% humidity. Plastic flasks 75 cm^2 (Biologix, Lenexa, KS, USA) were used to grow the cells.
(§4) The antiproliferative activity testing was performed on cell cultures using the MTT-dye reduction assay. This assay is based on the metabolism of MTT to insoluble formazan by mitochondrial reductases. The formazan concentration can be determined spectrophotometrically. The measured absorption is an indicator of cell viability. Cell lines (MCF-12F, MCF-7 and MDA-MB-231) were used in the experiments. Cells were plated at a density of 1 × 10^3 cells/100 µL in each well of 96-well microplates and allowed to adhere for 24 h before treatment with test compounds. A concentration range from 4 to 1000 μM was applied for 72 h. The formazan absorption was registered using a microplate reader at λ = 540 nm. Antiproliferative activities were expressed as IC50 values (concentrations required for 50% inhibition of cell growth).

[2] = tested on: Arthrobacter oxydans NBIMCC 9333; type: cell-based; conditions: 24 h
Procedure: as §1
(§5) The minimal inhibitory concentration (MIC) of the peptides was determined using the broth dilution method. Stock solutions of the peptides with a concentration of 10 mg/mL in 10% EtOH/H2O were prepared. Suspensions of the bacteria in the corresponding media were added to 96-well U-shaped bottom polystyrene plates (Deltalab S.L., Spain) and exposed to the peptide in the concentration range from 0 to 320 µg/mL, and a 10% EtOH/H2O control, diluted using the same scheme as the peptides, was also used. The plates were then incubated under aerobic conditions at the corresponding temperature for 24 h. The MIC (µg/mL) was assumed as the lowest concentration of the antimicrobial, where there was visible inhibition of the strain. The absorbance was measured at 630 nm (Microplate reader PKL PPC 142, Paramedical srl, Salerno, Italy). To determine the minimal bactericidal concentration (MBC) and minimal fungicidal concentration (MFC), 10 μL from concentrations greater than or equal to the MIC was placed on the corresponding solid nutrient medium. The Petri dishes were then incubated at 30 or 37 °C for 24 h. All experiments were conducted in a triplicate.

[3] = tested on: Escherichia coli NBIMCC 8785; type: cell-based; conditions: for Inhibition zone, E. coli 8785: 20 µL per disc, 24 h
Procedure: as §1, §2

[4] = tested on: Pseudomonas aeruginosa NBIMCC 3700; type: cell-based; conditions: for Inhibition effect, P. aeruginosa 3700: zone of peptide over zone of antibiotic x 100; for Inhibition zone, P. aeruginosa 3700: 20 µL per disc, 24 h
Procedure: as §1, §2

[5] = tested on: Candida albicans NBIMCC 74; type: cell-based; conditions: for Inhibition zone, C. albicans 74: 20 µL per disc, 24 h
Procedure: as §1, §2

[6] = tested on: Arthrobacter oxydans NBIMCC 9333; type: cell-based; conditions: for Inhibition effect, A. oxydans 9333: zone of peptide over zone of antibiotic x 100; for Inhibition zone, A. oxydans 9333: 20 µL per disc, 24 h
Procedure: as §1, §2

MDA-MB-231 cells = test: MTT antiproliferative assay, MDA-MB-231; type: cell-based, human; conditions: for IC50: MTT, 72 h, read-out: Mean IC50 ± SD, MDA-MB-231; for SI (Selectivity Index), MDA-MB-231: SI = IC50 MCF-12F/IC50 tumor cells
Procedure: as §3, §4

MCF-12F cells = test: MTT antiproliferative assay, MCF-12F; type: cell-based, human; conditions: 72 h, non-tumorigenic cell line, read-out: Mean IC50 ± SD, MCF-12F
Procedure: as §3, §4

[7] = 3T3 NRU cytotoxicity/phototoxicity test; type: cell-based, mouse; conditions: mouse; for CC50: cytotoxicity, no irradiation, BALB 3T3 clone A31, Neutral Red uptake, read-out: Mean CC50 ± SD, −Irr; for CC50 at 24 h: phototoxicity, irradiated 2.4 J/cm^2, BALB 3T3 clone A31, Neutral Red uptake, read-out: Mean CC50 ± SD, +Irr
Procedure: as §3
(§6) The cytotoxicity/phototoxicity testing was performed as described by the OECD Guidelines for the Testing of Chemicals, Section 4, Test No. 432: In Vitro 3T3 NRU Phototoxicity Test. BALB 3T3, clone A31 cells were grown in 75 cm^2 tissue culture flasks in DMEM high-glucose (4.5 g/L), 10% FBS, and antibiotics at 37.5 °C, in a humidified atmosphere under 5% CO2. Cells were plated at 1 × 10^4 cells / 100 μL culture medium in each well of 96-well microplates and allowed to adhere for 24 h before treatment with test compounds. Peptides were dissolved in DMSO and diluted with culture medium to working concentrations from 4 to 1000 μM. In phototoxicity tests, 96-well plates were irradiated (+Irr) with a dose of 2.4 J/cm^2 using an artificial solar light simulator Helios-iO (SERIC Ltd., Tokyo, Japan), and the cells were incubated for an additional 24 h. After treatment with a Neutral Red medium, washing, and application of the NR Desorb solution, the absorption was measured on a microplate reader at a wavelength of 540 nm. Cytotoxicity/phototoxicity was expressed as CC50 values (concentrations required for 50% cytotoxicity).

BALB 3T3 clone A31 cells = test: 3T3 NRU cytotoxicity/phototoxicity test; type: cell-based, mouse; conditions: PIF = CC50 −Irr/CC50 +Irr; PIF < 2 = not phototoxic
Procedure: as §3, §6

[8] = tested on: Bacillus subtilis NBIMCC 3562; type: cell-based; conditions: broth dilution, 0 to 320 µg/mL, 24 h; NI = no inhibition monitored
Procedure: as §1, §5

[9] = 10 µg/disk, positive control on the plate of the peptide of that line

Row | Structure (SMILES) | IC50 (MCF-7 cells) [µM] | SI (Selectivity Index), MCF-7 (MCF-7 cells) | Inhibition effect, B. subtilis 3562 ([1]; 1.4 mg/mL) [%] | Inhibition effect, B. subtilis 3562 ([1]; 10 mg/mL) [%] | Inhibition zone, B. subtilis 3562 ([1]; peptide 1.4 mg/mL) [mm] | Inhibition zone, B. subtilis 3562 ([1]; peptide 10 mg/mL) [mm] | Inhibition zone, E. coli 8785 ([3]; peptide 1.4 mg/mL) [mm] | Inhibition zone, E. coli 8785 ([3]; peptide 10 mg/mL) [mm] | Inhibition effect, P. aeruginosa 3700 ([4]; 1.4 mg/mL) [%] | Inhibition effect, P. aeruginosa 3700 ([4]; 10 mg/mL) [%] | Inhibition zone, P. aeruginosa 3700 ([4]; peptide 1.4 mg/mL) [mm] | Inhibition zone, P. aeruginosa 3700 ([4]; peptide 10 mg/mL) [mm] | Inhibition zone, C. albicans 74 ([5]; peptide 1.4 mg/mL) [mm] | Inhibition zone, C. albicans 74 ([5]; peptide 10 mg/mL) [mm] | Inhibition effect, A. oxydans 9333 ([6]; 1.4 mg/mL) [%] | Inhibition effect, A. oxydans 9333 ([6]; 10 mg/mL) [%] | Inhibition zone, A. oxydans 9333 ([6]; peptide 1.4 mg/mL) [mm] | Inhibition zone, A. oxydans 9333 ([6]; peptide 10 mg/mL) [mm] | IC50 (MDA-MB-231 cells) [µM] | SI (Selectivity Index), MDA-MB-231 (MDA-MB-231 cells) | also measured
1 | O=C(N[C@H](CO)[C@H](O)c1ccc([N+](=O)[O-])cc1)C(Cl)Cl [Chloramphenicol, reference compound] |  |  |  |  |  |  |  |  |  |  |  |  |  |  |  |  |  |  |  |  | Inhibition zone, B. subtilis 3562, antibiotic control ([1]; 30 µg/disk, positive control on the plate of the peptide of that line): 26.0 mm and 25.0 mm
2 | CC[C@H](C)[C@H](NC(=O)CNC(=O)[C@H](CO)NC(=O)[C@H](CC(C)C)NC(=O)[C@@H](NC(=O)[C@H](CCCNC(N)=O)NC(=O)CNC(=O)[C@@H](NC(=O)[C@H](CC(C)C)NC(=O)[C@@H]1CCCN1C(=O)[C@H](CC(C)C)NC(=O)[C@@H](N)Cc1ccccc1)[C@@H](C)CC)C(C)C)C(=O)N[C@@H](CC(C)C)C(N)=O [DTCit, FLPLIG-Cit-VLSGIL-NH2] (H-FLPLIG[Cit]VLSGIL-NH2; N-terminus assumed) | 150 ± 6.94 | 2.01 | 0.0 | 0.0 | 0.0 | 0.0 | 0.0 | 0.0 | 0.0 | 0.0 | 0.0 | 0.0 | 0.0 | 0.0 | 0.0 | 0.0 | 0.0 | 0.0 | 335 ± 4.37 | 0.90 | MIC, A. oxydans 9333 ([2]; broth dilution, 0 to 320 µg/mL, NI = no inhibition monitored): 160 µg/mL (≈ 114 µM); MBC, A. oxydans 9333 ([2]; plated from concentrations ≥ MIC): 160 µg/mL (≈ 114 µM); IC50 (MCF-12F cells): 301 ± 10.5 µM; CC50 [7]: 356 ± 7.64 µM; CC50 at 24 h [7]: 332 ± 12.3 µM; PIF (photo irritation factor) (BALB 3T3 clone A31 cells): 1.07
3 | CNC(C)C1CCC(N)C(OC2C(N)CC(N)C(OC3OCC(C)(O)C(NC)C3O)C2O)O1 (stereo not shown) [Gentamicin, reference compound] |  |  |  |  |  |  |  |  |  |  |  |  |  |  |  |  |  |  |  |  | Inhibition zone, E. coli 8785, antibiotic control [3, 9]: 18.0 mm; Inhibition zone, P. aeruginosa 3700, antibiotic control [4, 9]: 17.0 mm and 16.0 mm
4 | CC[C@H](C)[C@H](NC(=O)CNC(=O)[C@H](CO)NC(=O)[C@H](CC(C)C)NC(=O)[C@@H](NC(=O)[C@H](CN)NC(=O)CNC(=O)[C@@H](NC(=O)[C@H](CC(C)C)NC(=O)[C@@H]1CCCN1C(=O)[C@H](CC(C)C)NC(=O)[C@@H](N)Cc1ccccc1)[C@@H](C)CC)C(C)C)C(=O)N[C@@H](CC(C)C)C(N)=O [DTDap, FLPLIG-Dap-VLSGIL-NH2] (H-FLPLIG[Dap]VLSGIL-NH2; N-terminus assumed) | 473 ± 16.2 | 1.33 | 0.0 | 0.0 | 0.0 | 0.0 | 0.0 | 0.0 | 0.0 | 51.8 | 0.0 | 8.8 ± 0.8 | 0.0 | 0.0 | 0.0 | 53.0 | 0.0 | 9.8 ± 0.3 | 581 ± 17.5 | 1.09 | MIC, B. subtilis 3562 [8]: 320 µg/mL (≈ 241 µM); IC50 (MCF-12F cells): 630 ± 9.97 µM; CC50 [7]: 924 ± 21.6 µM; CC50 at 24 h [7]: 933 ± 20.7 µM; PIF (photo irritation factor) (BALB 3T3 clone A31 cells): 0.99
5 | CCC(C)n1ncn(-c2ccc(N3CCN(c4ccc(OCC5COC(Cn6cncn6)(c6ccc(Cl)cc6Cl)O5)cc4)CC3)cc2)c1=O (stereo not shown) [Itraconazole, reference compound] |  |  |  |  |  |  |  |  |  |  |  |  |  |  |  |  |  |  |  |  | Inhibition zone, C. albicans 74, antibiotic control [5, 9]: 15.0 mm and 14.0 mm
